Data as given in PubChem BioAssay (NCI).
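Tested at 5 concentrations; 48 h exposure; 96-well plates; endpoints linearly interpolated, else capped at highest concentration. GI50 = concentration required for 50% inhibition of growth. TGI denotes the concentration required for complete inhibition of growth.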

Experiments:
Test in all cases: NCI anticancer screen, dose series, 48 h
HCT-15 colon = test system: HCT-15 colon
SR leukemia = test system: SR leukemia
COLO 205 colon = test system: COLO 205 colon
SN12C renal = test system: SN12C renal
EKVX NSCLC = test system: EKVX NSCLC
HCC-2998 colon = test system: HCC-2998 colon
MOLT-4 leukemia = test system: MOLT-4 leukemia
SNB-75 CNS = test system: SNB-75 CNS
SF-539 CNS = test system: SF-539 CNS
SK-OV-3 ovarian = test system: SK-OV-3 ovarian

Compound	TGI (HCT-15 colon)	TGI (SR leukemia)	TGI (COLO 205 colon)	TGI (SN12C renal)	TGI (EKVX NSCLC)	TGI (HCC-2998 colon)	TGI (MOLT-4 leukemia)	TGI (SNB-75 CNS)	TGI (SF-539 CNS)	TGI (SK-OV-3 ovarian)	GI50 (SK-OV-3 ovarian)	GI50 (HCT-15 colon)	GI50 (SR leukemia)	GI50 (COLO 205 colon)	GI50 (SN12C renal)	GI50 (EKVX NSCLC)	GI50 (HCC-2998 colon)	GI50 (MOLT-4 leukemia)	GI50 (SNB-75 CNS)	GI50 (SF-539 CNS)
Cc1cn([C@@H]2C[C@H](CO)[C@@H]2O)c(=O)[nH]c1=O	> 100 µM	> 100 µM	> 100 µM	> 100 µM	> 100 µM	> 100 µM	> 100 µM	> 100 µM	> 100 µM	–	–	–	–	–	–	–	–	–	–	–
CN(C)CC1CCCc2ccccc2C1=O (stereo unspecified)	4.55 µM	> 100 µM	12.5 µM	24.2 µM	3.4 µM	12 µM	–	56.2 µM	10.1 µM	32.7 µM	–	–	–	–	–	–	–	–	–	–
COc1cc(/C(=C2/O[C@@H]([C@H]3COC(C)(C)O3)[C@H]3OC(C)(C)O[C@@H]23)c2ccc3c(c2)OCO3)cc(OC)c1OC	> 25 µM	> 25 µM	> 25 µM	> 25 µM	> 25 µM	> 25 µM	> 25 µM	> 25 µM	> 25 µM	> 25 µM	> 25 µM	> 25 µM	> 25 µM	> 25 µM	18.8 µM	> 25 µM	> 25 µM	> 25 µM	7.13 µM	8.05 µM
O=C1c2cccnc2-c2nccc3c2c1nc1ccc(Br)cc13	0.116 µM	0.0372 µM	1.6 µM	0.205 µM	0.311 µM	0.308 µM	0.569 µM	0.595 µM	0.141 µM	0.389 µM	–	–	–	–	–	–	–	–	–	–
O=C(Nc1ccc(Sc2ccc(N=Nc3c(O)c(S(=O)(=O)O)cc4cc(S(=O)(=O)O)ccc34)cc2)cc1)c1ccc(N=Nc2c(O)c(S(=O)(=O)O)cc3cc(S(=O)(=O)O)ccc23)cc1	28 µM	54 µM	40.2 µM	> 100 µM	> 100 µM	> 100 µM	36.8 µM	> 100 µM	> 100 µM	> 100 µM	–	–	–	–	–	–	–	–	–	–
O=C1O[C@H]2C3C4CCC(C4[C@@H]2I)[C@H]13 (stereo partly specified)	> 100 µM	> 100 µM	> 100 µM	> 100 µM	> 100 µM	> 100 µM	> 100 µM	> 100 µM	> 100 µM	–	–	–	–	–	–	–	–	–	–	–
COc1cc2c(c(OC)c1OC)-c1ccc(SC)c(=O)cc1[C@@H](NCc1cccc([N+](=O)[O-])c1)CC2	–	> 100 µM	< 0.01 µM	> 100 µM	> 100 µM	< 0.01 µM	> 100 µM	> 100 µM	0.17 µM	> 100 µM	–	–	–	–	–	–	–	–	–	–
